Assay results taken from patent publication US9320741B2, “Compositions and methods for treating neoplasia, inflammatory disease and other disorders” (Dana-Farber Cancer Institute, Inc., priority 2010, dated 2016).
Where two headings read alike, the source gives them in different places.

Legend:
797 cells = assay: Cell proliferation assay, 797 cell line; assay type: cell-based; conditions: Homo sapiens, read-out: Cell-assay IC50 797 cells
Experimental: Curve fit was calculated by logistical regression.
Cells were seeded into white, 384-well microtiter plates (Nunc) at 500 cells per well in a total volume of 50 μL media. […] Compounds were delivered to microtiter assay plates by robotic pin transfer (PerkinElmer JANUS equipped with a V&P Scientific 100 nL pin tool). Following a 48 h incubation at 37° C., cells were lysed and wells were assessed for total ATP content using a commercial proliferation assay (Cell TiterGlo; Promega). Replicate measurements were analyzed with respect to dose and estimates of IC50 were calculated by logistic regression (GraphPad Prism).

BRD4(1) = BRD4(1) (Homo sapiens (Human), UniProt O60885); assay: Alpha-assay acetyl-histone binding, BRD4 site 1; conditions: 12-point dose response curve; for IC50: read-out: Bio-assay IC50 BRD4(1)
Experimental: The binding activity of lead compounds with the BRD4 site 1 was determined by Alpha-assay with a 12-point dose response curve (FIG. 56A).
(§1) Assays were performed as described previously^8 with minor modifications from the manufacturer's protocol (PerkinElmer, USA). All reagents were diluted in 50 mM HEPES, 100 mM NaCl, 0.1% BSA, pH 7.4 supplemented with 0.05% CHAPS and allowed to equilibrate to room temperature prior to addition to plates. […] Plates were sealed and incubated for a further 30 minutes, before the addition of 4 μl of streptavidin-coated donor beads (25 μg/ml) and 4 μl nickel chelate acceptor beads (25 μg/ml) under low light conditions. Plates were foil-sealed to protect from light, incubated at room temperature for 60 minutes and read on a PHERAstar FS plate reader (BMG Labtech, Germany) using an AlphaScreen 680 excitation/570 emission filter set. IC50 values were calculated in Prism 5 (GraphPad Software, USA) after normalization against corresponding DMSO controls and are given as the final concentration of compound in the 20 μl reaction volume.

BRD4(2) = BRD4(2) (Homo sapiens (Human), UniProt O60885); assay: Alpha-assay acetyl-histone binding, BRD4 site 2; conditions: 12-point dose response curve; for IC50: read-out: Bio-assay IC50 BRD4(2)
[1] = Unspecified biological assay
TT and TE10 = assay: Cell proliferation assay, non-NMC squamous carcinoma lines; assay type: cell-based, human; conditions: TT and TE10, 250 nM, 72 hours
Experimental: Data is presented as mean±s.d. (n=3). IC50 values were calculated by logistic regression.

BRD3-NUT cells = assay: BRD3-NUT xenograft study; assay type: in vivo, mice; conditions: 50 mg/kg IP 7 days/week
Source text: Mice were implanted subcutaneously with BRD3-NUT cells. Tumor measurement data were collected weekly. […] On day 24 post-injection, five mice from each group were euthanized and tumor samples were collected to be sent for lab analysis. Throughout the remainder of the study tumor samples were collected as mice were sacrificed. For all samples one half of the tumor was fixed in 10% formalin and the other half was flash frozen on dry ice. Treatment ended on day 32. Tumor volume and weights were collected weekly until all mice either became moribund or tumors reached 2 cm in any dimension. […] Upon cessation of therapy, tumor growth resumed. Tumor volume differences were significant at all points (p=7.65274E-09 at Day 24).

GFP-BRD4 = GFP-BRD4 (Homo sapiens (Human), UniProt O60885)
NMC 797 and Per403 cells = assay: Differentiation and proliferation immunohistochemistry, NMC cells; assay type: cell-based, human
Source text: Direct inhibition of gene products expressed from recurrent, oncogenic translocations is a validated therapeutic approach in cancer^28,29. The phenotypic consequences of chemical inhibition of BET-family bromodomains on the BRD4-dependent NUT midline carcinoma was explored. BRD4-NUT chromatin localization is mechanistically linked to the preserved tandem bromodomains of BRD4 in the fusion protein^17. A characteristic feature of NMC is the appearance of discrete nuclear speckles of the BRD4-NUT oncoprotein by NUT-directed immunohistochemistry (IHC)^30.
A striking differentiation phenotype is observed with knock-down of BRD4-NUT in NMC cell lines^17. […] Differentiation was prompt (<24 hours) and characterized by markedly augmented expression of cytokeratin, a hallmark of squamous differentiation (FIG. 3h).

TE10 and TT = assay: Differentiation immunohistochemistry, non-BRD4-dependent squamous carcinoma lines; assay type: cell-based, human
[2] = test system: BRD4-dependent human carcinoma cells; assay: Annexin-V/propidium iodide flow cytometry, BRD4-dependent carcinoma cells; assay type: cell-based; conditions: 500 nM, 24 or 48 hours
Experimental: Thus, early and late apoptosis was assessed with annexin-V and propidium iodide staining by flow cytometry.
Trypsinized cells were mixed 1:1 on ice with Annexin-V/propidium iodide buffer (10 mM HEPES pH 7.4, 140 mM NaCl, 2.5 mM CaCl2) containing Annexin V-FITC (BD Pharmingen, 1:500) and propidium iodide (Invitrogen, 1:1000). Samples were immediately analyzed on a BD FACS Canto II. Visualizations and analyses of apoptotic fractions were generated using FlowJo flow cytometry analysis software (Tree Star, Inc.).

GFP-BRD4-NUT = GFP-BRD4-NUT (Homo sapiens (Human), UniProt O60885+Q86Y26); conditions: 500 nM, compared to vehicle control
Experimental: (§2) FRAP studies were performed on U2OS cells as previously described^3,20. In brief, U2OS cells were transfected (lipofectamine; Invitrogen) with mammalian overexpression constructs encoding GFP chimera with BRD4, NUT and BRD4-NUT. A 5 μm^2 nuclear region was bleached with high laser intensity in one cell within each field, and measured for recovery with low laser intensity and a 150 μm pinhole. Images of identical fields were acquired using a Nikon Cl Plus confocal microscope equipped with a 37° C. heated chamber and FRAP modules over 90 seconds. Average intensities of the bleached region were measured over time and using MetaMorph v7, and normalized to an independent region of interest before bleaching.

GFP-NUT = GFP-NUT (Homo sapiens (Human), UniProt Q86Y26); assay: FRAP in U2OS cells, GFP-NUT; conditions: 500 nM
Experimental: as §2

NMC 797 xenografts = assay: NMC 797 xenograft efficacy study
Experimental: Prior to randomization and after four days of therapy, mice were evaluated by PET imaging.
To capture comparative mechanistic and pharmacodynamic data, all animals were sacrificed and tumors were explanted for histopathologic analysis.
Animals were followed daily for clinical symptoms. Tumor measurements were assessed by caliper measurements, and volume calculated using the formula Vol=0.5×L×W^2. After 2 weeks of treatment, all mice were humanely euthanized, and tumors were fixed in 10% formalin for histopathological examination. Statistical significance of tumor volumes was calculated by two-sided Students t-test. All animal studies were approved by the IACUC of the DFCI.

[3] = Pharmacokinetic studies in CD1 mice; conditions: for AUC: CD1, mouse, plasma
cellular receptors = assay: Off-target effects on cellular receptors
NMC 11060 xenografts = assay: Patient-derived NMC 11060 primary xenograft study; assay type: in vivo, mice; conditions: 50 mg kg^−1 daily for four days
Source text: In parallel with these studies, a patient with widely metastatic BRD4-NUT positive NMC arising from the mediastinum was identified. With the goal of developing a more clinically-relevant disease model, short-term cultures were established using discarded clinical material obtained from pleural fluid draining from a palliative chest tube in the patient.

[4] = test system: Keratin-14, Keratin-10, epidermal transglutaminase (TGM1); assay: RT-PCR expression analysis of squamous tissue genes in NMC 797 cells; assay type: cell-based, human
NMC 797 cells = assay: Flow cytometry for DNA content, NMC 797; assay type: cell-based, human; conditions: 250 nM, 48 h
Experimental: Data is presented as mean±s.d. (n=3). IC50 values were calculated by logistic regression. […] Data points are mean±s.d. (n=3). […] PI, propidium iodide. […] A significant response to therapy is observed by two-tailed t-test at 14 days (p=0.039). Data represent the mean±s.d. (n=7). […] Expanded fields are provided in Supplementary FIGS. 11, 12. […] Quantitative analysis of keratin induction was performed using image masking (FIG. 5J, right panel) and pixel positivity analysis (FIG. 5K). A significant response to therapy is observed by two-tailed t-test (p=0.0001). Data represent the mean±s.d. of three independent wide microscopic fields.

NMC 11060 cells = assay: Flow cytometry for DNA content, NMC 11060; assay type: cell-based, human; conditions: 250 nM, 48 h
Experimental: Data is presented as mean±s.d. (n=3). IC50 values were calculated by logistic regression. […] Data points are mean±s.d. (n=3).

CBP = CBP (Homo sapiens (Human), UniProt Q92793); assay: AlphaScreen profiling against CBP; assay type: binding
Experimental: as §1

BET family members = assay: AlphaScreen profiling against other BET family members; assay type: binding, human

Sequence of CBP (Q92793 whole entry): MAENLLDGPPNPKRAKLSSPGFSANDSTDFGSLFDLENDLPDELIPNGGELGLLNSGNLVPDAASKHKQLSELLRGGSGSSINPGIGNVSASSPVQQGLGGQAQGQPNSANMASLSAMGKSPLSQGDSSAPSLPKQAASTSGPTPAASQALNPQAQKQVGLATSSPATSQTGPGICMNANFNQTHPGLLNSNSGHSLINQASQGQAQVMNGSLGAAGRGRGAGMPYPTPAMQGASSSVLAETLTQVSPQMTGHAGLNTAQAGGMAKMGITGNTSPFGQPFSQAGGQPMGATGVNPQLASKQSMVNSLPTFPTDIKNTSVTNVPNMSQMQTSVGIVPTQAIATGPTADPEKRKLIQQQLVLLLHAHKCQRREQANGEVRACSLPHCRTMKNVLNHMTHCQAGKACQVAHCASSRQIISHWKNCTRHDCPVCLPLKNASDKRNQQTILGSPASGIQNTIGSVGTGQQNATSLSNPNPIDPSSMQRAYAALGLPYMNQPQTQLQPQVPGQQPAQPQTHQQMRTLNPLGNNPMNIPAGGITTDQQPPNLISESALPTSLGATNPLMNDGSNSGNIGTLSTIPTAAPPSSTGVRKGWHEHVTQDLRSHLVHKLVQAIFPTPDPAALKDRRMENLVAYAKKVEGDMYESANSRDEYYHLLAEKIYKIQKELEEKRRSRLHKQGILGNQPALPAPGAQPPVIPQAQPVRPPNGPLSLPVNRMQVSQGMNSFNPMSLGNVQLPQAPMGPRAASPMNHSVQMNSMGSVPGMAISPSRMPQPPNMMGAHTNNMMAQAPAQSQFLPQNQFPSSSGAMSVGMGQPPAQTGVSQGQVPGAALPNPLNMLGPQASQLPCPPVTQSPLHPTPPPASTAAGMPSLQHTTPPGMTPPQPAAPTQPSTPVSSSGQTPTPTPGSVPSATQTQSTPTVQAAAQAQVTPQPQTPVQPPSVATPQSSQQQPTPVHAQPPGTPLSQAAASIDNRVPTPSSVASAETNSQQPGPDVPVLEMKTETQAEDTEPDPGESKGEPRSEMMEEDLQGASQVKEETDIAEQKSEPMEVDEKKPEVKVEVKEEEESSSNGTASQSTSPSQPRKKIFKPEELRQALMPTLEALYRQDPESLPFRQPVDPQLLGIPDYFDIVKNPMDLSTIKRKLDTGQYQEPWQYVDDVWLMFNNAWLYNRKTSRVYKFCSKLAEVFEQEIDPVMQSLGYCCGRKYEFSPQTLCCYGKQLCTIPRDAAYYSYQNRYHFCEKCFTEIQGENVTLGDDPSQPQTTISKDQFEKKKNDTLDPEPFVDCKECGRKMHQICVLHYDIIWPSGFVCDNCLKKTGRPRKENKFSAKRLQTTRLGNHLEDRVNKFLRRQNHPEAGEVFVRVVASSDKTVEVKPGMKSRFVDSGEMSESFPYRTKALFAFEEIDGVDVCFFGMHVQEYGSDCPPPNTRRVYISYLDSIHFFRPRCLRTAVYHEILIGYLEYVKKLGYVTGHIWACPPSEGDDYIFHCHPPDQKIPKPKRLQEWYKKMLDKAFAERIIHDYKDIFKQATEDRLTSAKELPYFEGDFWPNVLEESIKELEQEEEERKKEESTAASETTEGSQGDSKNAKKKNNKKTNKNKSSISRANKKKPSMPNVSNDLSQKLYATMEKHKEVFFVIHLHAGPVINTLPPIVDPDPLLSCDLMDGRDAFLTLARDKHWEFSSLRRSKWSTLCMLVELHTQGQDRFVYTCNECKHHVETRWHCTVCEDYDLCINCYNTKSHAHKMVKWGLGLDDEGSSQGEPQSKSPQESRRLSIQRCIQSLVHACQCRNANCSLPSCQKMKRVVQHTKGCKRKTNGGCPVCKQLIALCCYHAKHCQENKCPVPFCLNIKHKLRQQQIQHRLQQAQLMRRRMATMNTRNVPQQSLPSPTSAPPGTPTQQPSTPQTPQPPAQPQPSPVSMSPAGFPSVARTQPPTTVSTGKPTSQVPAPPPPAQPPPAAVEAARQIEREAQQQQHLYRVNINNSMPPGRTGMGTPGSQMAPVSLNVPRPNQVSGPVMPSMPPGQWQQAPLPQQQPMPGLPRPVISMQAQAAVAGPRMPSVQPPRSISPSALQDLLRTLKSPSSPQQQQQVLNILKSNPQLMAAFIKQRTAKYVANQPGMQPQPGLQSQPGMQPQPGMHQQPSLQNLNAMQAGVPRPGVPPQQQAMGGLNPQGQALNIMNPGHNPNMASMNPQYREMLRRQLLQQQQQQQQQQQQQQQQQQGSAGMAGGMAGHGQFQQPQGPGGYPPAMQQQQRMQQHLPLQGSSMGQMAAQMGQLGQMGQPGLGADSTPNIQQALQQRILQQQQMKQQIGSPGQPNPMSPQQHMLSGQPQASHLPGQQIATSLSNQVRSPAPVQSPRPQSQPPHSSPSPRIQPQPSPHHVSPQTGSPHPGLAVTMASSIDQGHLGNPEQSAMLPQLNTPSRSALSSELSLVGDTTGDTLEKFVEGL
Sequence of GFP-NUT (Q86Y26 whole entry, looked up): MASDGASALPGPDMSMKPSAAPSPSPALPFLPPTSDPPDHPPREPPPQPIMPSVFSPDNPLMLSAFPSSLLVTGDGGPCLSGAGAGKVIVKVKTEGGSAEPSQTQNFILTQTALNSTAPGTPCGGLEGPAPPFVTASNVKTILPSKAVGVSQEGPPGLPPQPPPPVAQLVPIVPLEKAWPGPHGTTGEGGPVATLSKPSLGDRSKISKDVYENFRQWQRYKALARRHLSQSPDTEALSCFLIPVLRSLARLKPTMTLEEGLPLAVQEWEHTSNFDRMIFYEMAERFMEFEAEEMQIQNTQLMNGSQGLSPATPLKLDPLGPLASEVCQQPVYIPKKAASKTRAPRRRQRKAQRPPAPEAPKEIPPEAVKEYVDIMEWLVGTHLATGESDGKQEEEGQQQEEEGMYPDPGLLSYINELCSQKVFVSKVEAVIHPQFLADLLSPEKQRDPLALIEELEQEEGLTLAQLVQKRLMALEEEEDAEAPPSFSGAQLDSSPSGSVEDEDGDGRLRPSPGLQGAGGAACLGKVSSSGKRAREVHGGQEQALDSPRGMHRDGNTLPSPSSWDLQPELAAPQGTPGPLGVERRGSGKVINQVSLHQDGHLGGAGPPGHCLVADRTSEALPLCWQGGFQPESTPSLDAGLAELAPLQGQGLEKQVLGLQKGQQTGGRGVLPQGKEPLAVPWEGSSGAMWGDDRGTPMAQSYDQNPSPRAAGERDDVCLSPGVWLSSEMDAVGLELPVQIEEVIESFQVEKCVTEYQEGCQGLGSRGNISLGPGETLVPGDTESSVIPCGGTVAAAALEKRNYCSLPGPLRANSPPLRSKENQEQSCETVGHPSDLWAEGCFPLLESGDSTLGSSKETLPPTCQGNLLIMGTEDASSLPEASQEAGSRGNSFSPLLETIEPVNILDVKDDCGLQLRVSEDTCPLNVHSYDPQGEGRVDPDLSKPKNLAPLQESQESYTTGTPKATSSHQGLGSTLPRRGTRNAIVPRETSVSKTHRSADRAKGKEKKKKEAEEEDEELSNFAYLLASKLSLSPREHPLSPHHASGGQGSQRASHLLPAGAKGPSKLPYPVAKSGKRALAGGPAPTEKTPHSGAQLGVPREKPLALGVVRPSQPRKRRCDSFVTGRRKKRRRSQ

`Cc1sc2c(c1C)C(c1ccc(Cl)cc1)=N[C@H](CC(=O)OC(C)(C)C)c1nnc(C)n1-2` [(R)-JQ1] gave an IC50 (797 cells; 72 h) of 1540 nM.
With `Cc1sc2c(c1C)C(c1ccc(Cl)cc1)=NC(CC(=O)NCCCN1CCN(C)CC1)c1nnc(C)n1-2` (centres unmarked) [JQ35] the “binding activity with the BRD4 site 1” value (BRD4(1)) was “excellent binding activity” and the “binding activity with the BRD4 site 2” value (BRD4(2)) was “excellent binding activity”.
With `Cc1sc2c(c1C)C(c1ccc(Cl)cc1)=N[C@@H](CC(=O)N/N=C/c1ncc[nH]1)c1nnc(C)n1-2` [JQ6] the “binding activity with the BRD4 site 1” value (BRD4(1)) was “excellent binding activity” and the “binding activity with the BRD4 site 2” value (BRD4(2)) was “excellent binding activity”.
For `Cc1sc2c(c1C)C(c1ccc(Cl)cc1)=NC(CC(=O)NN=Cc1ccc(O)cc1)c1nnc(C)n1-2` (centres unmarked) [hydrazone (4)], the “activity in at least one biological assay” value [1] was “showed activity”.
With “tert-Butyl 2-(4-(4-chlorophenyl)-2,3,9-trimethyl-6H-thieno[3,2-f][1,2,4]triazolo[4,3-a][1,4]diazepin-6-yl)acetate [JQ1]” the “effect on cell proliferation” value (TT and TE10) was “Minimal effects observed on cell proliferation”, the body weight (BRD3-NUT cells) was “mild weight loss with rapid recovery after cessation of therapy” and the tumor volume (BRD3-NUT cells) was “tumor regression while on therapy”. For the same molecule, the “fluorescence recovery of GFP-BRD4” value (GFP-BRD4; U2OS cells, 500 nM) was “observed recovery is immediate”, the “nuclear NUT foci by IHC” value (NMC 797 and Per403 cells; 797 NMC cell line, 500 nM, 48 hours) was “effaced nuclear foci” and the time to differentiation (NMC 797 and Per403 cells; NMC 797 and Per403 cells) was < 24 h. The differentiation effects (TE10 and TT) was “fail to exhibit differentiation effects”, the “apoptosis (annexin-V and propidium iodide staining)” value [2] was “induced immediate and progressive apoptosis” and the “time-to-recovery of fluorescence intensity, GFP-BRD4-NUT” value (GFP-BRD4-NUT) was “markedly accelerated time-to-recovery of fluorescence intensity”. The “redistribution of GFP-NUT” value (GFP-NUT) was “no effect was observed”, the “tumor growth (tumor volume by caliper)” value (NMC 797 xenografts; 50 mg kg^−1 daily intraperitoneal, 14 days) was “statistically-significant reduction in tumor growth” and the “FDG uptake by PET imaging” value (NMC 797 xenografts; 50 mg kg^−1 daily intraperitoneal, four days) was “marked response on FDG uptake”. The “tumor keratin expression, quantitative IHC” value (NMC 797 xenografts; 50 mg kg^−1 daily, excised tumors) was “strong (3+) keratin expression”, the “NUT nuclear speckles in sectioned tumor tissue” value (NMC 797 xenografts; 50 mg kg^−1 daily, excised tumors, IHC) was “effacement of NUT nuclear speckles” and the “oral bioavailability (F)” value ([3]; CD1 mice, oral 10 mg kg^−1) was 49%. The “off-target effects on cellular receptors” value (cellular receptors) was “few off-target effects on cellular receptors”.
For `Cc1sc2c(c1C)C(c1ccc(Cl)cc1)=N[C@@H](CC(=O)OC(C)(C)C)c1nnc(C)n1-2` (single isomer, unassigned) [(+)-JQ1], the “FDG uptake by PET imaging” value (NMC 11060 xenografts) was “marked response on FDG uptake”, the “tumor keratin expression, quantitative IHC” value (NMC 11060 xenografts) was “induction of keratin expression” and the “fluorescence recovery of GFP-BRD4” value (GFP-BRD4; 250 nM, 5 h, compared to vehicle control) was “enhanced recovery”. For the same molecule, the “differentiation and growth arrest phenotypes” value (NMC 797 and Per403 cells; BRD4-dependent NMC cells) was “differentiation and growth arrest phenotypes are prompted”, the “effect on epidermal transglutaminase (TGM1)” value [4] was “absent effect” and the “induction of Keratin-10” value [4] was “modest induction”. For the same molecule, the “cell cycle (DNA content)” value (NMC 797 cells) was “induced a G1 arrest”, the “cell cycle (DNA content)” value (NMC 11060 cells) was “induces a G1 arrest” and the AUC ([3]; iv, 5 mg/kg) was 2090 ng·h/mL. For the same molecule, the AUC ([3]; po, 10 mg/kg) was 2090 ng·h/mL and the “half-life (T1/2)” value ([3]; CD1 mice, intravenous 5 mg kg^−1) was “approximately one”.
In the case of `Cc1sc2c(c1C)C(c1ccc(Cl)cc1)=NC(CC(=O)NN)c1nnc(C)n1-2` (centres unmarked) [hydrazide (3)], the “activity in at least one biological assay” value [1] is reported as “showed activity”.
With `Cc1sc2c(c1C)C(c1ccc(Cl)cc1)=N[C@@H](CC(=O)OC(C)(C)C)c1nnc(C)n1-2` [JQ1S] the “binding and inhibition of CBP” value (CBP) was “inactive” and the “binding and inhibition of BET family members” value (BET family members) was “active”.
In the case of `Cc1sc2c(c1C)C(c1ccc(Cl)cc1)=N[C@@H](CC(=O)NCCN1CCN(C)CC1)c1nnc(C)n1-2` [JQ13], the “binding activity with the BRD4 site 1” value (BRD4(1)) is reported as “excellent binding activity”, the IC50 (BRD4(1)) is reported as 2.49 nM and the “binding activity with the BRD4 site 2” value (BRD4(2)) is reported as “excellent binding activity”. For the same molecule, the IC50 (BRD4(2)) was 0.584 nM and the IC50 (797 cells; proliferation after 72 hours) was 10900 nM.
For `Cc1sc2c(c1C)C(c1ccc(Cl)cc1)=NC(CC(=O)NCCN1CCOCC1)c1nnc(C)n1-2` (centres unmarked) [JQ33], the “binding activity with the BRD4 site 1” value (BRD4(1)) was “excellent binding activity”, the IC50 (BRD4(1)) was 85 nM and the “binding activity with the BRD4 site 2” value (BRD4(2)) was “excellent binding activity”. For the same molecule, the IC50 (BRD4(2)) was 29.5 nM.
With `Cc1sc2c(c1C)C(c1ccc(Cl)cc1)=N[C@@H](CC(=O)NCCc1cnc[nH]1)c1nnc(C)n1-2` [JQ8] the “binding activity with the BRD4 site 1” value (BRD4(1)) was “excellent binding activity” and the “binding activity with the BRD4 site 2” value (BRD4(2)) was “excellent binding activity”.
